{
  "source": "patent US20220175761A1",
  "about": "“BI-LIGAND DRUG CONJUGATE AND USE THEREOF” (COHERENT BIOPHARMA (SUZHOU), LIMITED, priority 2019, published 2022)",
  "key": {"[1]": {"system": "LNCaP (human prostate cancer cells)", "experiment": "Inhibition of cell line proliferation, CCK8", "format": "cell-based", "conditions": "LNCaP", "excerpt": "Since different cells have different sensitivity to a cell proliferation inhibitory toxicity of the payload in a ligand conjugate, the quantitative analysis may be interfered occasionally. A series of cell lines with known expression levels of receptors of different ligands were selected and tested for the response to inhibitory effects of the cell proliferation of a ligand conjugate and a single payload. The IC50 ratio of a single payload to that of a ligand conjugate in same cell line were taken to remove such interference.\nExperimental operations: LNCaP and 22RV1 cells were prepared in advance, counted, and plated in 96-well cell culture plates at a cell density of 4×10^4 cells/ml and 2.0×10^4 cells/ml, respectively (100 μl/well); negative control and blank control wells were set on each plate. After adherent cell culture overnight, the diluted samples to be tested were added at 50 μl/well. The plates were placed in an incubator at 37° C., 5% CO2 and cultured for 68-72 hours. To each well, 15 μl (10% of the liquid volume in a well) of a color developing solution from CCK8 was added; and the plates were incubated at 37° C. for 45-70 minutes and each plate was read at 450 nm on a microplate reader. The data was edited using SoftMax Pro and a 4-P fitting curve was plotted. […]"}, "[2]": {"system": "CFPAC-1 (human pancreatic cancer cells)", "experiment": "Inhibition of cell line proliferation, CCK8", "format": "cell-based", "experimental": "(§1) Experimental operations: PANC-1 and CFPAC-1 cells were prepared in advance, counted, and plated in 96-well cell culture plates at a cell density of 4×10^4 cells/ml (100 μl/well); negative control and blank control wells were set on each plate. After adherent cell culture overnight, the diluted samples to be tested were added at 50 μl/well. The plates were placed in an incubator at 37° C., 5% CO2 and cultured for 68-72 hours. To each well, 15 μl (10% of the liquid volume in a well) of a color developing solution from CCK8 was added; and the plates were incubated at 37° C. for 45-70 minutes and each plate was read at 450 nm on a microplate reader. The data was edited using SoftMax Pro and a 4-P fitting curve was plotted.\n(§2) Experimental operations: LNCaP, SK-BR-3, NCI-H226, CFPAC-1 and PANC-1 cells were prepared in advance and counted; with a culture medium (IMDM+10% FBS+1× L-Glutamine+1×P/S), the cells LNCaP, SK-BR-3 and CFPAC-1 were diluted to 4×10^4 cells/ml, NCI-H226 was diluted to 2.0×10^4 cells/ml and PANC-1 was diluted to 3.0×10^4 cells/ml; the diluted cell solution was plated in 96-well plates at 100 μl/well; and negative control and blank control wells were set on each plate. After adherent cell culture overnight, the diluted samples to be tested were added at 50 μl/well. The plates were placed in an incubator at 37° C., 5% CO2 and cultured for 68-72 hours. To each well, 15 μl (10% of the liquid volume in a well) of a color developing solution from CCK8 was added; and the plates were incubated at 37° C. for 45-70 minutes and each plate was read at 450 nm on a microplate reader. The data was edited using SoftMax Pro and a 4-P fitting curve was plotted.\n(§3) Experimental Operations: LNCaP, SK-BR-3, MDA-MB-468 and CFPAC-1 cells were prepared in advance and counted; with a culture medium (IMDM+10% FBS+1× L-Glutamine+1×P/S), the cells LNCaP, SK-BR-3, MDA-MB-468 and CFPAC-1 were diluted to 4×10^4 cells/ml; the diluted cell solution was plated in 96-well plates at 100 µl/well; and negative control and blank control wells were set on each plate. After adherent cell culture overnight, the diluted samples to be tested were added at 50 μl/well. The plates were placed in an incubator at 37° C., 5% CO2 and cultured for 68-72 hours. To each well, 15 μl (10% of the liquid volume in a well) of a color developing solution from CCK8 was added; and the plates were incubated at 37° C. for 45-70 minutes and each plate was read at 450 nm on a microplate reader. The data was edited using SoftMax Pro and a 4-P fitting curve was plotted.\nas §3, with “Operations: LNCaP, MDA-MB-468, CFPAC-1 and PANC-1” for “Operations: LNCaP, SK-BR-3, MDA-MB-468 and CFPAC-1”, “CFPAC-1 and PANC-1 cells were” for “MDA-MB-468 and CFPAC-1 cells were”, “cells LNCaP, MDA-MB-468 and” for “cells LNCaP, SK-BR-3, MDA-MB-468 and”, “to 4×10^4 cells/ml, and PANC-1 was diluted to 3.0×10^4 cells/ml; the” for “to 4×10^4 cells/ml; the”, “at 100 μl/well; and negative” for “at 100 µl/well; and negative”\nExperimental operations: NCI-H226, CFPAC-1 and MDA-MB-468 cells were prepared in advance and counted; MDA-MB-468 and CFPAC-1 cells were plated at a density of 2×10^4 cells/ml (100 μl/well) and NCI-H226 cells were plated at a density of 1×10^4 cells/ml (100 μl/well) in 96-well plates; and negative control and blank control wells were set on each plate. After adherent cell culture overnight, the diluted samples to be tested were added at 50 μl/well. The plates were placed in an incubator at 37° C., 5% CO2 and cultured for 68-72 hours. […]"}, "[3]": {"system": "PANC-1 (human pancreatic cancer cells)", "experiment": "Inhibition of cell line proliferation, CCK8", "format": "cell-based", "experimental": "as §1, §2\nas §3, with “Operations: LNCaP, MDA-MB-468, CFPAC-1 and PANC-1” for “Operations: LNCaP, SK-BR-3, MDA-MB-468 and CFPAC-1”, “CFPAC-1 and PANC-1 cells were” for “MDA-MB-468 and CFPAC-1 cells were”, “cells LNCaP, MDA-MB-468 and” for “cells LNCaP, SK-BR-3, MDA-MB-468 and”, “to 4×10^4 cells/ml, and PANC-1 was diluted to 3.0×10^4 cells/ml; the” for “to 4×10^4 cells/ml; the”, “at 100 μl/well; and negative” for “at 100 µl/well; and negative”"}, "[4]": {"system": "MDA-MB-468 (human breast cancer cells)", "experiment": "Inhibition of cell line proliferation, CCK8", "format": "cell-based", "experimental": "as §3\nas §3, with “Operations: LNCaP, MDA-MB-468, CFPAC-1 and PANC-1” for “Operations: LNCaP, SK-BR-3, MDA-MB-468 and CFPAC-1”, “CFPAC-1 and PANC-1 cells were” for “MDA-MB-468 and CFPAC-1 cells were”, “cells LNCaP, MDA-MB-468 and” for “cells LNCaP, SK-BR-3, MDA-MB-468 and”, “to 4×10^4 cells/ml, and PANC-1 was diluted to 3.0×10^4 cells/ml; the” for “to 4×10^4 cells/ml; the”, “at 100 μl/well; and negative” for “at 100 µl/well; and negative”\nExperimental operations: NCI-H226, CFPAC-1 and MDA-MB-468 cells were prepared in advance and counted; MDA-MB-468 and CFPAC-1 cells were plated at a density of 2×10^4 cells/ml (100 μl/well) and NCI-H226 cells were plated at a density of 1×10^4 cells/ml (100 μl/well) in 96-well plates; and negative control and blank control wells were set on each plate. After adherent cell culture overnight, the diluted samples to be tested were added at 50 μl/well. The plates were placed in an incubator at 37° C., 5% CO2 and cultured for 68-72 hours. To each well, 15 μl (10% of the liquid volume in a well) of a color developing solution from CCK8 was added; and the plates were incubated at 37° C. for 45-70 minutes and each plate was read at 450 nm on a microplate reader. The data was edited using SoftMax Pro and a 4-P fitting curve was plotted."}, "[5]": {"system": "SCLC-21H (small cell lung cancer cells)", "experiment": "Tumor growth inhibition in subcutaneous xenograft model (CDX)", "format": "in vivo, BALB/c-nude mice", "conditions": "SCLC-21H CDX", "experimental": "Main CDX models: HPAF-II (human pancreatic cancer cells), NCI-H226 (human lung cancer cells) and SCLC-21H (small cell lung cancer cells)\nThe cells or tumor tissue mass were prepared and subcutaneously inoculated into the anterior right flank of BALB/c-nude mice. When the tumor volume expanded to 80-160 mm^3, a randomized grouping was performed, and a model control group and administration groups were set. The mice were administrated from the first day of grouping, wherein the administration dose was adjusted according to the latest weight measurement. The mice were administrated via tail vein injection at an administration volume of 10 μl/g. After grouping and administration, the effects of tumor growth and treatment on normal behaviors of animals, specifically including the activity of experimental animals, food intake and drinking status, weight gain or loss status, and other abnormal conditions in eyes, hair, etc., were monitored. After grouping and administration, the weight of mice was measured twice a week to calculate the rate of weight change; at the same time, the long diameter and short diameter of the tumor were measured with a vernier caliper, and the tumor volume, relative tumor proliferation rate, tumor volume inhibition rate and other indicators were calculated. The formula of tumor volume is TV=0.5 a×b^2, wherein a is […] the long diameter of a tumor and b is the short diameter of a tumor."}},
  "note": "Numbered stars: 1 amine (or outer) side, 2 acyl side, 3 side chain; on linkers, the order of the positions; unused ones are H or OH. Bridge positions count the residues as written; N and C are the ends. Square brackets hold non-standard residues; d marks the D form. Peptide text beside a SMILES is read from it. I, II: the chains in the order shown. * marks the point of attachment. ξ: configuration not given here. Hexanoyl(6-succinimido-3yl) = O=C1CC([*:1])C(=O)N1CCCCCC(=O)[*:2]; EuK = O=C(O)CC[C@H](NC(=O)N[C@@H](CCCCN*)C(=O)O)C(=O)O; Dolaproine = CO[C@@H]([C@@H]1CCCN1)[C@@H](C)C(=O)O; Dil = CC[C@H](C)[C@H](NC)[C@@H](CC(=O)O)OC; PABC = O=C(OCc1ccc(N[*:1])cc1)[*:2]; X1 = C[C@@H](N*)[C@@H](O)c1ccccc1; X2 = O=C(Cc1ccc(CN[*:1])cc1)[*:2]; PEG4 = NCCOCCOCCOCCOCCC(=O)O; NMeV = CN[C@H](C(=O)O)C(C)C; ξCit = NC(=O)NCCCC(N)C(=O)O; CO = O=C([*:1])[*:2]; Butyryl = CCCC(=O)*; Ahx = NCCCCCC(=O)O",
  "data": [
    {"compound": "CCCC(=O)N[C@@H](Cc1ccccc1)C(=O)N[C@H]1CSSC[C@@H](C(=O)N[C@H](C(=O)N[C@@H](CCCCNC(=O)[C@H](CCC(=O)O)NC(=O)CCOCCOCCOCCOCCNC(=O)[C@H](CCC(=O)O)NC(=O)[C@H](CSC2CC(=O)N(CCCCCC(=O)N[C@H](C(=O)NC(CCCNC(N)=O)C(=O)Nc3ccc(COC(=O)N(C)[C@H](C(=O)N[C@H](C(=O)N(C)[C@@H]([C@@H](C)CC)[C@@H](CC(=O)N4CCC[C@H]4[C@H](OC)[C@@H](C)C(=O)N[C@H](C)[C@@H](O)c4ccccc4)OC)C(C)C)C(C)C)cc3)C(C)C)C2=O)NC(=O)CCCCCNC(=O)[C@H](CCCCN)NC(=O)[C@H](CC(=O)O)NC(=O)[C@H](CC(=O)O)NC(=O)Cc2ccc(CNC(=O)NCCCC[C@H](NC(=O)N[C@@H](CCC(=O)O)C(=O)O)C(=O)O)cc2)C(N)=O)[C@@H](C)O)NC(=O)[C@H]([C@@H](C)O)NC(=O)[C@H](CCCCN)NC(=O)[C@H](Cc2c[nH]c3ccccc23)NC(=O)[C@H](Cc2ccc(O)cc2)NC1=O", "note": "(stereo partly drawn) [CB-1820] (I: Butyryl-FCYWKTCTK-NH2 / II: {EuK-CO}-[X2]DDK[Ahx]CE[PEG4]E / III: V[ξCit][PABC][NMeV]V[Dil][Dolaproine]-X1; disulfide I:2-I:7; amide I:9-II:C; linker II:6-III:N via Hexanoyl(6-succinimido-3yl))", "values": [
      {"measurement": "IC50 ratio (MMAE/conjugate)", "setting": "[1]", "value": 0.1429},
      {"measurement": "IC50", "setting": "[1]; 68-72 hours, CCK8", "value": 0.021, "unit": "µM"},
      {"measurement": "IC50 (MMAE)/IC50 (conjugate)", "setting": "[2]; CFPAC-1", "value": 0.0421},
      {"measurement": "IC50", "setting": "[2]; CFPAC-1, 68-72 hours, CCK8", "value": 0.356, "unit": "µM"},
      {"measurement": "IC50 (MMAE)/IC50 (conjugate)", "setting": "[3]; PANC-1", "value": 0.0364},
      {"measurement": "IC50", "setting": "[3]; PANC-1, 68-72 hours, CCK8", "value": 0.055, "unit": "µM"},
      {"measurement": "IC50 (MMAE)/IC50 (conjugate)", "setting": "[4]; MDA-MB-468", "value": 0.0323},
      {"measurement": "IC50", "setting": "[4]; MDA-MB-468, 68-72 hours, CCK8", "value": 0.062, "unit": "µM"},
      {"measurement": "anti-tumor growth effect (in words)", "setting": "[5]", "value": "obvious anti-tumor growth effect"}
    ]}
  ]
}
